Broadly, the melting point is the temperature of the solid-liquid transition. For `Cn1cc(-c2cccc(N3Cc4cc(C(C)(C)C)ccc4C3=O)c2CO)cc(Nc2ccc(C3CN(C(=O)OC(C)(C)C)C3)cn2)c1=O`, the melting point was 151 to 152 °C.

With `O=S(=O)(c1ccc(-c2ccc3cnc(Nc4ccc(N5CCOCC5)cc4)nn23)cc1)N1CCCC1`, the melting point lay within 182 to 184 °C.

As for `COc1cccc(-c2ncc3n2CC(=O)N(C)C3)c1`, the melting point was 115 to 117 °C.

The molecule `CCCCn1ncc2c1nc(N)n1nc(-c3ccco3)nc21` yielded a melting point of 157 to 158 °C.

`Cc1ccncc1NC(=O)OC(C)(C)C` gave a melting point of 91 to 93 °C.

For `Oc1ccc(-c2nc3ccccc3[nH]2)cc1`, the melting point was 286 to 288 °C.

On to `COc1ccc(C(=O)Nc2ccc(F)c(F)c2)cc1NS(=O)(=O)c1cccc(N)c1`, for which the melting point is 212 to 214 °C.

Regarding `N#Cc1ccc(Oc2ccc(S(=O)(=O)NCc3ccc4ccccc4n3)cc2)c(Cl)c1`, the melting point was 83 to 86 °C.

Regarding `Cc1cc(-c2c(O)c(=O)c2=O)c2c(C)ccc(C(C)C)cc1-2`, the melting point is 120 to 123 °C.

Molecule `CCN(CC)C(=O)c1cc2ccc(C)cc2c(-c2ccccc2Cl)n1` yielded a melting point of 162 °C.

For the molecule `CC(C)(C)C1CCN(CCCC(=O)c2ccc3c(c2)-c2ccc(C(=O)CCCN4CCC(C(C)(C)C)CC4)c4cccc-3c24)CC1`, the melting point lay in the range of 150 to 152 °C.

Take `CNC(=O)C1CC(c2ccc(-c3ccc(N4C[C@H](Cn5ccnn5)OC4=O)cc3F)cn2)=NO1` (stereo partly specified): the melting point was in the range of 185 to 195 °C.

Consider `COC(=O)c1ccc(S(=O)(=O)N2CC[C@@H](Sc3cc(C(C)(C)C)c(O)c(C(C)(C)C)c3)C2)n1C`, for which the melting point is 83 to 85 °C.

`CCNC(=O)c1cc(C)c(C(c2cc(F)ccc2F)S(=O)(=O)c2ccc(F)cc2)cn1` (stereo unspecified) registered a melting point of 191 to 193 °C.

Molecule `O=c1ccc2cnc(Nc3ccccc3)nc2[nH]1` showed a melting point greater than 350 °C.

Regarding `CCc1cc2c(-c3ccccc3Cl)c(NC(=O)C=Cc3cc(OC)c(OC(C)=O)c(OC)c3)cnc2s1`, the melting point was in the range of 133 to 135 °C.

Take `COCOc1ccccc1-c1cc(-c2cccc(CN=[N+]=[N-])c2)c(C#N)c(N)n1`: the melting point is 99 to 100 °C.

In turn, `COC(=O)C=C(C(=O)OC)N1CCC23C=CC(O)CC2Oc2c(OC)ccc(c23)C1` (stereo unspecified) returned a melting point of 121 to 122 °C.

Regarding `COc1cc(-c2nc(NC3CCCC3)c3c(C)c(C#N)sc3n2)cc(OC)c1OC`, the melting point lay within 218 to 220 °C.

In turn, `CC(=O)N1CCN(C(=O)Cn2c(-c3ccc(Cl)cc3)nc3cccnc32)CC1` had a melting point of 217 to 219 °C.

For `Cc1ccc(N2C(=O)C(O)=C(C(=O)c3ccc(C(C)C)cc3)C2c2ccc(OC3CCOCC3)cc2)nn1` (stereo unspecified), the melting point stood at 275 °C.

With `CCCCn1cnc2c(Oc3cccc(OC)c3)nc(Nc3ccc(F)cc3)nc21`, the melting point was 138 to 140 °C.

In turn, `COc1ccc(C2=NN(c3ccccc3)C(c3ccc(N)cc3)C2)cc1` (stereo unspecified) had a melting point of 164 to 166 °C.

`Nc1cc2c(cc1[N+](=O)[O-])CC(CCO)C2` (stereo unspecified) registered a melting point of 89 to 91 °C.

As for `CC(C)C(OC(=O)NC(C)(Cc1ccccc1)C(=O)NC(C)(C)c1ccccc1)c1ccccc1` (stereo unspecified), the melting point is 115 to 123 °C.

`Cc1oc(-c2cccs2)nc1CCOc1ccc([N+](=O)[O-])cn1` yielded a melting point of 126 °C.

Regarding `CS(=O)CC1=C(c2ccccc2)C(=O)N(C(C)(C)C(=O)Nc2cc(F)ccc2F)CO1` (stereo unspecified), the melting point was 105 to 107 °C.

`Cc1nc(N2CCN(Cc3ccncc3)C2=O)sc1C(=O)NCc1cccnc1` returned a melting point of 233 to 235 °C.

Take `Clc1ccc2sc(Cl)nc2c1`: the melting point was 70 °C.

Consider `COc1cc(Nc2c(C#N)cnc3sc(C)cc23)c(Cl)cc1Cl`, for which the melting point was 179 to 181 °C.

In turn, `O=C1C=C(Nc2c(Br)cccc2Br)CCN1` had a melting point of 240 to 243 °C.

Turning to `CCCCC(=O)C(Cc1ccc(C(=O)O)cc1)c1ccccc1` (stereo unspecified), the melting point worked out at 140 °C.

`O=S1(=O)c2cccc3cccc(c23)N1CCN1CC=C(c2ccccc2)CC1` had a melting point of 106 °C.

In turn, `COc1cc(C=C2CC(=O)OC2=O)cc(OC)c1OC` showed a melting point of 184 to 187 °C.

`O=C(/C=C/C=C(c1cccc([N+](=O)[O-])c1)c1cccc([N+](=O)[O-])c1)NCCCCc1cccnc1` displayed a melting point of 158 to 159 °C.

For `CS(=O)c1ccc(-c2cnn(CC(F)(F)F)c(=O)c2-c2ccc(Cl)cc2)cc1` (stereo unspecified), the melting point was 154 to 155 °C.

In the case of `CCC(Oc1ccc(C=Cc2nc[nH]n2)cc1)C(N)=O` (stereo unspecified), the melting point turned out to be 150 °C.

Turning to `Cc1cc(C(=O)N2Cc3cccn3Cc3ccccc32)ccc1[N+](=O)[O-]`, the melting point fell in the range of 246 to 248 °C.

On to `CC(C)(C)NC(=O)[C@@H]1CSCN1`, for which the melting point lay within 68 to 71 °C.

With `Cc1scc2c1N(C(=O)N1CC3CN(C)CC3C1)c1ccccc1NC2=O` (stereo unspecified), the melting point was in the range of 220 to 222 °C.

For the molecule `NC(=O)c1ccc(C(c2ccccc2[N+](=O)[O-])(C(F)(F)F)C(F)(F)F)cc1`, the melting point lay within 147 to 148 °C.

In turn, `CCC(C)(Cc1c[nH]c2ccc(F)cc12)[N+](=O)[O-]` (stereo unspecified) yielded a melting point of 71 to 72 °C.

Regarding `CCc1nnc(-c2ccc(OC)cc2)n1-c1ccc(C(=O)N(C)C)cc1`, the melting point was found to be 136 °C.

`CN(C)S(=O)(=O)c1cccc2c1Sc1ccc(OC3CCCCO3)cc1N2CCCN1CCC(CCO)CC1` (stereo unspecified) gave a melting point of 129 to 131 °C.

The molecule `Cc1ccc(C(=O)NCc2cccnc2)c(Nc2ccc3cn[nH]c3c2)n1` displayed a melting point of 170 to 172 °C.

`C=C(c1ccccc1)c1ccc2nc(N)n(S(=O)(=O)N(C)C)c2c1` registered a melting point of 201 to 202 °C.

`COc1ccc2c(c1)CC(=O)c1cc(C(C)C(N)=O)ccc1S2` (stereo unspecified) displayed a melting point of 186 to 188 °C.

In turn, `COc1cccc(-c2cc(S(=O)(=O)c3ccc(N)cc3)cc(N3CCCC3)n2)c1` yielded a melting point of 214 to 215 °C.

In the case of `C(=C\c1cn(-c2ccccc2)nc1OCc1ccccc1)/c1cscn1`, the melting point lay in the range of 101 to 102 °C.

Consider `CC(C)(O)CCOc1c(-c2ccc(S(C)(=O)=O)cc2)cnn(-c2ccc(F)c(Cl)c2)c1=O`, for which the melting point was in the range of 108 to 110 °C.

`CCOC1=CC2=CCC3C4CC(C)(C)C(=O)C4(C)CCC3C2(C)CC1` (stereo unspecified) displayed a melting point of 133 to 137 °C.

Take `COC(CCC(N)=C(SC)S(C)=O)OC` (stereo unspecified): the melting point fell in the range of 86 to 87 °C.

Turning to `CN(c1cccc2cc(C3=NCCS3)[nH]c12)S(=O)(=O)c1cccs1`, the melting point lay within 192 to 193 °C.

Molecule `CCCCN1CC(C(=O)OC)N(S(=O)(=O)c2ccc(-c3ccc(Br)cc3)cc2)CC1=O` (stereo unspecified) showed a melting point of 113 to 115 °C.

`Cc1cc2c(c(C)c1Br)C(c1ccc(C(C)C)cc1)CS2` (stereo unspecified) showed a melting point of 98 to 100 °C.

The molecule `Cc1ccc(C)n1-c1cc(F)cc(F)c1` registered a melting point of 55 to 56 °C.

`CC(C)c1nc(O)c([N+](=O)[O-])c(O)n1` showed a melting point of 300 °C.

`O=C(O)CCSc1cccs1` came in with a melting point of 110 to 112 °C.

With `C[C@H]1N(C(=O)c2ccc(OCC(F)(F)C(F)F)cc2)CC(O)O[C@@]1(Cn1cncn1)c1ccc(F)cc1F` (relative stereo), the melting point is 209 to 210 °C.

`CN1CCCC1=C1C(=O)N(c2ccccc2)c2cc(Cl)ccc21` came in with a melting point of 134 to 137 °C.

Consider `Nc1ccc(C(=O)c2ccccc2)c(Cl)c1`, for which the melting point was 120 to 130 °C.

As for `O=[N+]([O-])c1cc(Cl)cc2c1OC[C@H](CO)O2`, the melting point was in the range of 83 to 88 °C.

The molecule `Cc1ccc2c(c1)S(=O)(=O)N=C(NC(C)C)N2` showed a melting point of 266 to 268 °C.

Regarding `COc1ccc2nc(-c3ccc(OC)c(F)c3)c(Cl)c(Br)c2c1`, the melting point fell in the range of 197 to 199 °C.

Molecule `Cc1c(C)c2c(c(C)c1O)CCC(C)(C(=O)N1CCC(Oc3ccc([N+](=O)[O-])cc3)C1)O2` (stereo unspecified) gave a melting point of 176 to 178 °C.

As for `Cc1ccc2c(=O)cc[nH]c2c1[N+](=O)[O-]`, the melting point is greater than 250 °C.

The molecule `Cc1nc2ccc3c(c2o1)OC(CN1CCC(n2c(=O)[nH]c4ccccc42)CC1)CO3` (stereo unspecified) returned a melting point of 218 to 220 °C.

Molecule `Cc1c(S(C)=O)c(C=NO)nn1-c1c(Cl)cc(C(F)(F)F)cc1Cl` (stereo unspecified) returned a melting point of 210 to 214 °C.

`CC(=Cc1ccccc1)c1ccc2c(c1)C(C)(C)CCC2(C)C` registered a melting point of 83 to 85 °C.

In turn, `CC(C)Cn1c(CN2CCCS2(=O)=O)nc2c(N)nc3ccccc3c21` came in with a melting point of 230 to 232 °C.

The molecule `CCOC(=O)C1=C(N2CCCC2)N=C(C)C(C(=O)OCC)C1c1ccccc1C#N` (stereo unspecified) returned a melting point of 115 °C.

`CC(C)Oc1n[nH]c(=O)n1C` gave a melting point of 142 °C.

`Cc1cc(-n2ccnc2)c2cccc(OCc3c(Cl)ccc(S(=O)(=O)N4CCC[C@H]4C(=O)N(C)CCCN(C)C(=O)OC(C)(C)C)c3Cl)c2n1` displayed a melting point of 70 °C.

`O=C(O)CC1(c2ccccc2)CCCC1C(=O)O` (stereo unspecified) gave a melting point of 205 to 208 °C.

For `Cc1c2c(nn1C)c(N)nc1ccccc12`, the melting point is greater than 250 °C.

Turning to `CC(=O)Nc1nc(CCc2ccc(CCC(=O)O)s2)cs1`, the melting point lay in the range of 164 to 165 °C.

For `CC(=O)NNCC1CC2c3cccc4c3c(cn4C)CC2N(C)C1` (stereo unspecified), the melting point lay in the range of 190 to 192 °C.

`C=CCOC(=O)c1ccc(-c2ccc3cc(OCCCCC(=O)OCC)c(C45CC6CC(CC(C6)C4)C5)cc3c2)cc1` yielded a melting point of 117 to 118 °C.

`CCOCc1cc2ccccc2oc1=Nc1ccc(Br)cc1` gave a melting point of 73 to 74 °C.

`COC(=O)c1ccc(C(O)c2c(C)c3cc(C(F)(F)F)ccc3n2S(=O)(=O)c2cccc(C(C)(C)C)c2)cc1` (stereo unspecified) displayed a melting point of 65 °C.

In turn, `Fc1ccccc1C1=CCC(=S)Nc2ccc(Cl)cc21` had a melting point of 179 to 181 °C.

On to `COc1cc(-c2n[nH]c(N)n2)c(OC)cc1C`, for which the melting point is 248 °C.

The molecule `Cc1cccc([N+](=O)[O-])c1C(=O)N[C@@H]1c2cc(OC(F)(F)F)ccc2OC(C)(C)[C@H]1O` gave a melting point of 204 to 206 °C.

`O=C1NCCOc2c1sc1ccccc21` displayed a melting point of 244 to 245 °C.

On to `COc1nc(C)c(C)cc1NC(=S)N1CCN(c2cc(F)cc(F)c2)CC1`, for which the melting point was 60 to 62 °C.

Take `Nc1ccc(S(=O)(=O)c2cc(Br)nc(N3CCOCC3)c2)cc1`: the melting point fell in the range of 244 to 245 °C.

These data come from a melting point compilation (Tetko et al.; mined from patent text by program, amines drawn as free bases though some values may be those of a salt).
